Source: patent US4190666A, “Anti-inflammatory 4,5-diarly-2-(substituted-thio)imidazoles and their corresponding sulfoxides and sulfones” (E. I. Du Pont de Nemours and Company, priority 1978, dated 1980)

The compounds below were run on established adjuvant-induced arthritis in rats (assay: Established adjuvant-induced arthritis in rats (therapeutic, paw volume)). Conditions: 1.0 mg./kg., oral.
Format: in vivo, Charles River Lewis male rats
`Fc1cccc(-c2[nH]c(SC(F)(F)C(F)F)nc2-c2ccccc2)c1` [Example 120] was tested, and the “percent (%) reduction in paw volume measured at the indicated dose” value (shortened to “percent (%) reduction in paw volume”) was 37%.

Same assay, conditions: 10 mg./kg., oral
For `CCOc1ccc(-c2[nH]c(SC(F)(F)C(F)F)nc2-c2ccccc2)cc1` [Example 118], the “percent (%) reduction in paw volume” value was 32%.

Same assay, conditions: 50 mg./kg., oral
With `CSc1nc(-c2ccccc2)c(-c2cccc(Cl)c2)[nH]1` [Example 114] the “percent (%) reduction in paw volume” value was 45%.
In the case of `CCCCS(=O)(=O)c1nc(-c2ccc(OC)cc2)c(-c2ccc(OC)cc2)[nH]1` [Example 129], the “percent (%) reduction in paw volume” value was 71%.
`CCOc1ccc(-c2[nH]c(S(C)(=O)=O)nc2-c2ccccc2)cc1` [Example 138] was tested, and the “percent (%) reduction in paw volume” value was 41%.

Same assay, conditions: 75 mg./kg., oral
In the case of `C[S+]([O-])c1nc(-c2ccccc2)c(-c2cccc(Cl)c2)[nH]1` (stereo not drawn) [Example 139], the “percent (%) reduction in paw volume” value was 77%.

Same assay, conditions: Rattus norvegicus, po, established arthritis, 7 daily doses, ED50% decrease from control paw volume, Tables I-III, read-out: Adjuvant Arthritis (ED50%)
`O=S(=O)(c1nc(-c2ccccc2)c(-c2cccc(F)c2)[nH]1)C(F)(F)C(F)F` [Example 143] was tested, and the ED50 was 0.06 mg/kg.
Work on `O=S(=O)(c1nc(-c2ccc(Cl)cc2)c(-c2ccc(Cl)cc2)[nH]1)C(F)F` [Example 77] yielded an ED50 of 0.35 mg/kg.
With `COc1ccc(-c2nc(SC(F)(F)C(F)F)[nH]c2-c2ccc(OC)cc2)cc1` [Example 38] the ED50 was 4.2 mg/kg.
In the case of `COc1ccc(-c2nc(SC(F)(F)C(F)F)[nH]c2-c2ccccc2)cc1` [Example 44], the ED50 was 20 mg/kg.
Work on `O=S(=O)(c1nc(-c2ccccc2)c(-c2ccccc2)[nH]1)C(F)(F)C(F)Cl` (stereo not drawn) [Example 73] yielded an ED50 of 0.25 mg/kg.
Work on `FC(F)C(F)(F)Sc1nc(-c2ccc(Cl)cc2)c(-c2ccccc2)[nH]1` [Example 45] yielded an ED50 of 0.3 mg/kg.
In the case of `O=S(=O)(c1nc(-c2ccc(Cl)cc2)c(-c2ccc(C(F)(F)F)cc2)[nH]1)C(F)(F)C(F)F` [Example 90], the ED50 was 1.8 mg/kg.
`Fc1ccc(-c2nc(SC(F)(F)C(F)(F)F)[nH]c2-c2ccc(F)cc2)cc1` [Example 110] gave an ED50 of 0.2 mg/kg.
Work on `FC(F)Sc1nc(-c2ccc(Cl)cc2)c(-c2ccc(Cl)cc2)[nH]1` [Example 31] yielded an ED50 of 0.35 mg/kg.
In the case of `O=S(=O)(c1nc(-c2ccc(Cl)cc2)c(-c2ccc(Cl)cc2)[nH]1)C(F)(F)C(F)F` [Example 69, 4,5-bis(4-chlorophenyl)-2-(1,1,2,2-tetrafluoroethylsulfonyl)imidazole], the ED50 was 0.2 mg/kg.
`O=S(=O)(CC(F)(F)F)c1nc(-c2ccccc2)c(-c2ccccc2)[nH]1` [Example 3, 4,5-Diphenyl-2-(2,2,2-trifluoroethylsulfonyl)imidazole] was tested, and the ED50 was 12 mg/kg.
`O=S(=O)(c1nc(-c2ccc(F)cc2)c(-c2ccc(F)cc2)[nH]1)C(F)(F)F` [Example 104, 4,5-bis(p-fluorophenyl)-2-trifluoromethylsulfonylimidazole] was tested, and the ED50 was 0.015 mg/kg.
Work on `CS(=O)(=O)c1nc(-c2ccc(Cl)cc2)c(-c2ccccc2)[nH]1` [Example 85] yielded an ED50 of 30 mg/kg.
Work on `FC(F)C(F)(F)Sc1nc(-c2ccc3c(c2)OCO3)c(-c2ccc3c(c2)OCO3)[nH]1` [Example 46] yielded an ED50 of 10 mg/kg.
`CS(=O)(=O)c1nc(-c2ccc(Cl)cc2)c(-c2ccc(F)cc2)[nH]1` [Example 79] gave an ED50 of 2.8 mg/kg.
Work on `CSc1nc(-c2ccc3c(c2)OCO3)c(-c2ccc3c(c2)OCO3)[nH]1` [Example 37] yielded an ED50 of 20 mg/kg.
For `Cc1ccc(-c2nc(S(=O)(=O)C(F)(F)C(F)F)[nH]c2-c2ccccc2)cc1` [Example 96], the ED50 was 0.6 mg/kg.
`O=S(=O)(c1nc(-c2ccccc2Cl)c(-c2ccccc2Cl)[nH]1)C(F)(F)C(F)F` [Example 91] was tested, and the ED50 was 0.8 mg/kg.
In the case of `COc1ccc(-c2nc(SCC(C)=O)[nH]c2-c2ccc(OC)cc2)cc1` [Example 16, 2-Acetonylthio-4,5-bis(4-methoxyphenyl)imidazole], the ED50 was 9.4 mg/kg.
Compound `COc1ccc(-c2nc(SC(F)(F)F)[nH]c2-c2ccc(F)cc2)cc1` [Example 109] has an ED50 of 2.7 mg/kg.
`COc1ccc(-c2nc(S(=O)(=O)CC(C)=O)[nH]c2-c2ccc(OC)cc2)cc1` [Example 100] showed an ED50 of 18 mg/kg.
With `[O-][S+](CC(F)(F)F)c1nc(-c2ccc(Cl)cc2)c(-c2ccc(Cl)cc2)[nH]1` (stereo not drawn) [Example 8, 4,5-bis(4-chlorophenyl)-2-(2,2,2-trifluoroethylsulfinyl)imidazole] the ED50 was 3 mg/kg.
`Fc1ccc(-c2nc(SC(F)(F)C(F)F)[nH]c2-c2ccc(C(F)(F)F)cc2)cc1` [Example 48] was tested, and the ED50 was 1.5 mg/kg.
With `O=S(=O)(c1nc(-c2ccc(F)cc2)c(-c2ccc(F)cc2)[nH]1)C(F)F` [Example 78] the ED50 was 0.1 mg/kg.
`COc1ccc(-c2nc(S(C)(=O)=O)[nH]c2-c2ccc(OC)cc2)cc1` [Example 57] showed an ED50 of 6.4 mg/kg.
`CCS(=O)(=O)c1nc(-c2ccc(OC)cc2)c(-c2ccc(OC)cc2)[nH]1` [Example 14, 2-Ethylsulfonyl-4,5-bis(4-methoxyphenyl)imidazole] was tested, and the ED50 was 5.2 mg/kg.
With `O=S(=O)(c1nc(-c2ccccc2)c(-c2ccccc2)[nH]1)C(F)(F)F` [Example 103, 4,5-diphenyl-2-trifluoromethylsulfonylimidazole] the ED50 was 0.03 mg/kg.
With `FC(F)C(F)(F)Sc1nc(-c2ccccc2Cl)c(-c2cccc(Cl)c2)[nH]1` [Example 50] the ED50 was 1.2 mg/kg.
In the case of `Cc1ccc(-c2nc(S(=O)(=O)C(F)(F)C(F)F)[nH]c2-c2ccc(C)cc2)cc1` [Example 81], the ED50 was 0.35 mg/kg.
`CSc1nc(-c2ccc(F)cc2)c(-c2ccc(F)cc2)[nH]1` [Example 28] gave an ED50 of 3.5 mg/kg.
With `CN(C)c1ccc(-c2nc(SC(F)(F)C(F)F)[nH]c2-c2ccccc2)cc1` [Example 53] the ED50 was 2.5 mg/kg.
In the case of `C[S+]([O-])c1nc(-c2ccc(F)cc2)c(-c2ccc(F)cc2)[nH]1` (stereo not drawn) [Example 136], the ED50 was 4 mg/kg.
With `FC(F)C(F)(F)Sc1nc(-c2ccccc2)c(-c2cccc(Cl)c2)[nH]1` [Example 121] the ED50 was 0.6 mg/kg.
`CCC[S+]([O-])c1nc(-c2ccc(OC)cc2)c(-c2ccc(OC)cc2)[nH]1` (stereo not drawn) [Example 61] gave an ED50 of 13 mg/kg.
Work on `O=S(=O)(c1nc(-c2ccc(Cl)cc2)c(-c2ccc(F)cc2)[nH]1)C(F)(F)C(F)F` [Example 80] yielded an ED50 of 0.09 mg/kg.
Work on `FC(F)(F)CSc1nc(-c2ccc(Cl)cc2)c(-c2ccc(Cl)cc2)[nH]1` [Example 7, 4,5-bis(4-Chlorophenyl)-2-(2,2,2-trifluoroethylthio)imidazole] yielded an ED50 of 5 mg/kg.
`C[S+]([O-])c1nc(-c2ccccc2)c(-c2ccc(Cl)c(Cl)c2)[nH]1` (stereo not drawn) [Example 146] showed an ED50 of 50 mg/kg.
In the case of `COc1ccc(-c2nc(S(=O)(=O)C(C)C)[nH]c2-c2ccc(OC)cc2)cc1` [Example 63], the ED50 was 30 mg/kg.
In the case of `O=S(=O)(c1nc(-c2ccccc2)c(-c2ccccc2)[nH]1)C(F)F` [Example 75], the ED50 was 0.35 mg/kg.
`[O-][S+](c1nc(-c2ccc(Cl)cc2)c(-c2ccc(Cl)cc2)[nH]1)C(F)(F)C(F)F` (stereo not drawn) [Example 68] gave an ED50 of 0.2 mg/kg.
`O=S(=O)(c1nc(-c2ccc3c(c2)OCO3)c(-c2ccc3c(c2)OCO3)[nH]1)C(F)(F)C(F)F` [Example 97] showed an ED50 of 1 mg/kg.
With `Fc1ccc(-c2[nH]c(SC(F)(F)C(F)F)nc2-c2ccc(Cl)cc2)cc1` [Example 42] the ED50 was 0.18 mg/kg.
`C=CCSc1nc(-c2ccc(OC)cc2)c(-c2ccc(OC)cc2)[nH]1` [Example 11, 2-Allylthio-4,5-bis(4-methoxyphenyl)imidazole] was tested, and the ED50 was 22 mg/kg.
`O=S(=O)(c1nc(-c2cccc(Cl)c2)c(-c2cccc(Cl)c2)[nH]1)C(F)(F)C(F)F` [Example 93] was tested, and the ED50 was 0.16 mg/kg.
In the case of `FC(F)(F)Sc1nc(-c2ccccc2)c(-c2ccc(Cl)c(Cl)c2)[nH]1` [Example 111], the ED50 was 7 mg/kg.
`COc1cccc(-c2nc(S(=O)(=O)C(F)(F)C(F)F)[nH]c2-c2cccc(OC)c2)c1` [Example 84] was tested, and the ED50 was 4 mg/kg.
For `C=CC[S+]([O-])c1nc(-c2ccc(OC)cc2)c(-c2ccc(OC)cc2)[nH]1` (stereo not drawn) [Example 54], the ED50 was 11 mg/kg.
`CSc1nc(-c2ccc(Cl)cc2)c(-c2ccc(C(F)(F)F)cc2)[nH]1` [Example 36] showed an ED50 of 3.6 mg/kg.
In the case of `CS(=O)(=O)c1nc(-c2ccc(F)cc2)c(-c2ccc(C(F)(F)F)cc2)[nH]1` [Example 87], the ED50 was 3.7 mg/kg.
Compound `Fc1ccc(-c2nc(SC(F)(F)C(F)F)[nH]c2-c2ccccc2)cc1` [Example 49] has an ED50 of 0.2 mg/kg.
Compound `[O-][S+](c1nc(-c2ccccc2)c(-c2ccccc2)[nH]1)C(F)(F)C(F)F` (stereo not drawn) [Example 66] has an ED50 of 0.18 mg/kg.
In the case of `O=S(=O)(c1nc(-c2ccccc2)c(-c2ccccc2)[nH]1)C(F)(F)CF` [Example 124], the ED50 was 0.15 mg/kg.
Compound `CS(=O)(=O)c1nc(-c2ccc(F)cc2)c(-c2ccc(F)cc2)[nH]1` [Example 72] has an ED50 of 4.5 mg/kg.
`Fc1ccc(-c2nc(SC(F)F)[nH]c2-c2ccc(F)cc2)cc1` [Example 32] was tested, and the ED50 was 0.42 mg/kg.
In the case of `CSc1nc(-c2ccccc2)c(-c2cccc(F)c2)[nH]1` [Example 113], the ED50 was 50 mg/kg.
With `[O-][S+](c1nc(-c2ccc(F)cc2)c(-c2ccc(F)cc2)[nH]1)C(F)(F)C(F)F` (stereo not drawn) [Example 134] the ED50 was 0.055 mg/kg.
For `Cc1ccc(-c2nc(SC(F)(F)C(F)F)[nH]c2-c2ccc(C)cc2)cc1` [Example 43], the ED50 was 18 mg/kg.
Work on `CSc1nc(-c2ccc(Cl)cc2)c(-c2ccc(F)cc2)[nH]1` [Example 33] yielded an ED50 of 3.8 mg/kg.
`COc1ccc(-c2nc(SC)[nH]c2-c2ccc(OC)cc2)cc1` [Example 15, 4,5-bis(4-Methoxyphenyl)-2-methylthioimidazole] showed an ED50 of 4.4 mg/kg.
With `COc1ccc(-c2[nH]c(SC(F)(F)C(F)F)nc2-c2ccc(F)cc2)cc1` [Example 117] the ED50 was 14 mg/kg.
For `FC(F)C(F)(F)Sc1nc(-c2ccccc2)c(-c2ccc(Cl)c(Cl)c2)[nH]1` [Example 119], the ED50 was 3 mg/kg.
For `COc1ccc(-c2nc([S+](C)[O-])[nH]c2-c2ccc(OC)cc2)cc1` (stereo not drawn) [Example 56], the ED50 was 6.2 mg/kg.
`COc1ccc(-c2nc(S(=O)(=O)CS(C)(=O)=O)[nH]c2-c2ccc(OC)cc2)cc1` [Example 99] was tested, and the ED50 was 54 mg/kg.

Same assay, conditions: established arthritis, oral, 7 daily doses; ED50% decrease from control paw volume; Tables I-III
In the case of `FC(Br)C(F)(F)Sc1nc(-c2ccccc2)c(-c2ccccc2)[nH]1` (stereo not drawn) [Example 52, 2-(2-bromo-1,1,2-trifluoroethylthio)-4,5-diphenylimidazole], the “Adjuvant Arthritis (ED50%)” value was 11 mg/kg.
With `COc1ccc(-c2nc(SC(F)(F)C(F)I)[nH]c2-c2ccc(OC)cc2)cc1` (stereo not drawn) [Example 116] the “Adjuvant Arthritis (ED50%)” value was 30 mg/kg.

Same assay, conditions: established arthritis, oral, 7 daily doses; ED50% decrease from control paw volume; Tables I-III; listed as 122
For `CN(C)c1ccc(-c2nc(SC(F)(F)C(F)F)[nH]c2-c2ccccc2)cc1` [Example 53], the “Adjuvant Arthritis (ED50%)” value was 4.0 mg/kg.
